Data from US20240270762A1, “PENICILLIN-BINDING PROTEIN INHIBITORS” (priority 2021, published 2024).

Columns and labels:
P. aeruginosa CDC-0090 = experiment: microbe, parasite or virus in culture; format: cell-based; settings: Pseudomonas aeruginosa, CDC0090, read-out: Minimum inhibitory concentration, P. aeruginosa CDC-0090
[1] = target: T1, PBP3 from Pseudomonas aeruginosa (PAO1) (Pseudomonas aeruginosa, UniProt G3XD46); experiment: Bocillin-FL fluorescence polarization competition binding, P. aeruginosa PBP3; settings: Binding affinity to P. aeruginosa PBP3; fluorescence polarization competition binding assay using Bocillin-FL; read-out: P. aeruginosa PBP3 Potency
T1 construct: made in house
T1 sequence (G3XD46 whole entry): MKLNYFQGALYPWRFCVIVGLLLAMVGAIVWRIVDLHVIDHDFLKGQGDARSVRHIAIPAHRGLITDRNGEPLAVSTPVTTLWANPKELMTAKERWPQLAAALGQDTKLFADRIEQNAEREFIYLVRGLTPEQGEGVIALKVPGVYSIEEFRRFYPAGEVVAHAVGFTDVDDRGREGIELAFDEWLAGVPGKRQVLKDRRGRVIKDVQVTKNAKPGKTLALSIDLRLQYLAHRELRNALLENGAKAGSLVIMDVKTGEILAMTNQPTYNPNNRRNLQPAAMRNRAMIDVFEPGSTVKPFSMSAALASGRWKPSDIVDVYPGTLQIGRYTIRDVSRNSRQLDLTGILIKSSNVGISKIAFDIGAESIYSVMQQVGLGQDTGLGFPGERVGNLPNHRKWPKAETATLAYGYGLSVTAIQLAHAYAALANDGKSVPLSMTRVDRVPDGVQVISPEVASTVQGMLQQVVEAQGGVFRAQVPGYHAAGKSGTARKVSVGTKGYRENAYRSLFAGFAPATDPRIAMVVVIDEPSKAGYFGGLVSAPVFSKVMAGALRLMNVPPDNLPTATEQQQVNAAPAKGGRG
Procedure, shortened: (§1)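 Purified PBP was preincubated with inhibitor (E. coli PBP3 1.5 μM, 30 min; P. aeruginosa PBP3 0.75 μM, A. baumannii PBP3 0.2 μM and PBP1a 1 μM, 15 min), then Bocillin-FL (0.1 μM; 0.05 μM for PBP1a) added and FP read up to 60 min. EC50 = 50% loss of bound probe.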

A. baumannii CDC-0083 = experiment: microbe, parasite or virus in culture; format: cell-based; settings: Acinetobacter baumannii, CDC0083, read-out: MIC, A. baumannii CDC-0083
[2] = tested on: P. aeruginosa (ΔmexAB-oprM); experiment: Broth microdilution MIC in iron-depleted CAMHB (IDM); format: cell-based; settings: Pseudomonas aeruginosa; iron-depleted CAMHB (IDM); […]; read-out: Minimum inhibitory concentration, P. aeruginosa ΔmexAB-oprM
A. baumannii ATCC 17978 = experiment: microbe, parasite or virus in culture; format: cell-based; settings: Acinetobacter baumannii, ATCC17978, read-out: MIC, A. baumannii ATCC 17978
P. aeruginosa CDC-0054 = experiment: microbe, parasite or virus in culture; format: cell-based; settings: Pseudomonas aeruginosa, CDC0054, read-out: Minimum inhibitory concentration, P. aeruginosa CDC-0054
A. baumannii 1258916 = experiment: microbe, parasite or virus in culture; format: cell-based, Acinetobacter baumannii; settings: Acinetobacter baumannii, 1258916, read-out: MIC, A. baumannii 1258916
[3] = target: T2, PBP3 from Acinetobacter baumannii (ATCC 19606) (Acinetobacter baumannii, UniProt A0ABX6CK25); experiment: Bocillin-FL fluorescence polarization competition binding, A. baumannii PBP3; settings: fluorescence polarization competition binding assay using Bocillin-FL; read-out: A. baumannii PBP3 Potency
T2 sequence (A0ABX6CK25 64-610): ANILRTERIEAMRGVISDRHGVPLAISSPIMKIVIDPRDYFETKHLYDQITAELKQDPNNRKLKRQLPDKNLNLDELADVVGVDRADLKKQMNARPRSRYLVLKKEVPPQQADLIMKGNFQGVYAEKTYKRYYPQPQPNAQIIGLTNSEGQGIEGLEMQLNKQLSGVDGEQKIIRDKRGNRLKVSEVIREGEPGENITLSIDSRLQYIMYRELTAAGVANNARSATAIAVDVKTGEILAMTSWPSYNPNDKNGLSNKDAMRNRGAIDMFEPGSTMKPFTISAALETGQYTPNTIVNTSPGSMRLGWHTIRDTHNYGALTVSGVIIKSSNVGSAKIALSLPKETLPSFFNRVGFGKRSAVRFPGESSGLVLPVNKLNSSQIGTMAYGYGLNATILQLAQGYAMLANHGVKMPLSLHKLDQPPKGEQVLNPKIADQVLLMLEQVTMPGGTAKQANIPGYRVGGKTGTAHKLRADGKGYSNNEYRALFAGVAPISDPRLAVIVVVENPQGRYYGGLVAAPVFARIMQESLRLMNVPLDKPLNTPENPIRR
Procedure, shortened: as §1

[4] = tested on: B. thailandensis ATCC 700388; experiment: microbe, parasite or virus in culture; format: cell-based; settings: Burkholderia thailandensis, ATCC700388, read-out: Minimum inhibitory concentration (MIC), B. thailandensis ATCC 700388
[5] = target: T3, PBP3 from Escherichia coli (K-12) (Escherichia coli, UniProt P0AD68); experiment: Bocillin-FL fluorescence polarization competition binding, E. coli PBP3
T3 construct: made in house
T3 sequence (P0AD68 1-577): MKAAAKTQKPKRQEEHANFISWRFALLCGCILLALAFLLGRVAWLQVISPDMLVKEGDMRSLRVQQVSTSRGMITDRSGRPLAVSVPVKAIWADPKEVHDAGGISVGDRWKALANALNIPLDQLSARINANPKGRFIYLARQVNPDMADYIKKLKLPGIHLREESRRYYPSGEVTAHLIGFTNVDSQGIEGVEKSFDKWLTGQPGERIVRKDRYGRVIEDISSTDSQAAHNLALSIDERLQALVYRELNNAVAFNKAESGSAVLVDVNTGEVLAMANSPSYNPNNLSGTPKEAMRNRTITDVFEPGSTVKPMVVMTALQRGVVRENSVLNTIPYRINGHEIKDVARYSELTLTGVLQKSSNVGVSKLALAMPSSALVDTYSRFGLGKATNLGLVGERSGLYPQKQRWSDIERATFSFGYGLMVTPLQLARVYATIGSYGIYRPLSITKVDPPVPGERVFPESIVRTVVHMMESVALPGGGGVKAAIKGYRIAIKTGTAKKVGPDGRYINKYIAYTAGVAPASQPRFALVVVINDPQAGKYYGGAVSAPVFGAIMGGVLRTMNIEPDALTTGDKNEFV
Procedure, shortened: as §1

A. baumannii CDC-0045 = experiment: microbe, parasite or virus in culture; format: cell-based; settings: Acinetobacter baumannii, CDC0045, read-out: MIC, A. baumannii CDC-0045

O=C(NCCCN1CCN(C(=O)N[C@H](C(=O)N[C@H]2Cc3ccc(F)c(C(=O)O)c3OB2O)c2cc(F)c(O)c(O)c2Cl)C(=O)C1=O)c1cccc(O)c1Cl [Example 302, (R)-3-((S)-2-(4-(3-(2-chloro-3-hydroxybenzamido)propyl)-2,3-dioxopiperazine-1-carboxamido)-2-(2-chloro-5-fluoro-3,4-dihydroxyphenyl)acetamido)-7-fluoro-2-hydroxy-3,4-dihydro-2H-benzo[e][1,2]oxaborinine-8-carboxylic acid]
2 to 4 µg/mL: MIC [2] | MIC (A. baumannii ATCC 17978)
32 to 64 µg/mL: MIC (P. aeruginosa CDC-0090) | MIC (P. aeruginosa CDC-0054)
50 to 250 µM: IC50 [1] | IC50 [3]
> 128 µg/mL: MIC (A. baumannii CDC-0083) | MIC (A. baumannii 1258916) | MIC [4] | MIC (A. baumannii CDC-0045)
> 250 µM: EC50 [5]

O=C(NCCCN1CCN(C(=O)N[C@@H](C(=O)N[C@H]2Cc3ccc(F)c(C(=O)O)c3OB2O)c2cc(F)c(O)c(O)c2Cl)C(=O)C1=O)c1cccc(O)c1Cl [Example 303, (R)-3-((R)-2-(4-(3-(2-chloro-3-hydroxybenzamido)propyl)-2,3-dioxopiperazine-1-carboxamido)-2-(2-chloro-5-fluoro-3,4-dihydroxyphenyl)acetamido)-7-fluoro-2-hydroxy-3,4-dihydro-2H-benzo[e][1,2]oxaborinine-8-carboxylic acid]
< 1 µg/mL: MIC (P. aeruginosa CDC-0090) | MIC (A. baumannii CDC-0083) | MIC [2] | MIC (A. baumannii ATCC 17978) | MIC (P. aeruginosa CDC-0054) | MIC (A. baumannii 1258916) | MIC [4] | MIC (A. baumannii CDC-0045)
< 10 µM: IC50 [1] | IC50 [3] | EC50 [5]

O=C(NCCCN1CCN(C(=O)NC(C(=O)N[C@H]2Cc3ccc(F)c(C(=O)O)c3OB2O)c2cc(F)c(O)c(O)c2Cl)C(=O)C1=O)c1ccc(O)c(F)c1 (stereo partly drawn) [Example 304, (3R)-3-(2-(2-chloro-5-fluoro-3,4-dihydroxyphenyl)-2-(4-(3-(3-fluoro-4-hydroxybenzamido)propyl)-2,3-dioxopiperazine-1-carboxamido)acetamido)-7-fluoro-2-hydroxy-3,4-dihydro-2H-benzo[e][1,2]oxaborinine-8-carboxylic acid]
2 to 4 µg/mL: MIC (P. aeruginosa CDC-0054) | MIC [4]
< 1 µg/mL: MIC (P. aeruginosa CDC-0090) | MIC (A. baumannii CDC-0083) | MIC [2] | MIC (A. baumannii ATCC 17978) | MIC (A. baumannii 1258916) | MIC (A. baumannii CDC-0045)
< 10 µM: IC50 [1] | IC50 [3] | EC50 [5]

O=C(NCCCN1CCN(C(=O)NC(C(=O)N[C@H]2Cc3ccc(F)c(C(=O)O)c3OB2O)c2cc(F)c(O)c(O)c2Cl)C(=O)C1=O)c1ccc(O)c(Cl)c1 (stereo partly drawn) [Example 305, (3R)-3-(2-(4-(3-(3-chloro-4-hydroxybenzamido)propyl)-2,3-dioxopiperazine-1-carboxamido)-2-(2-chloro-5-fluoro-3,4-dihydroxyphenyl)acetamido)-7-fluoro-2-hydroxy-3,4-dihydro-2H-benzo[e][1,2]oxaborinine-8-carboxylic acid]
< 10 µM: IC50 [1] | IC50 [3] | EC50 [5]
2 to 4 µg/mL: MIC (A. baumannii CDC-0083) | MIC (P. aeruginosa CDC-0054) | MIC [4] | MIC (A. baumannii CDC-0045)
< 1 µg/mL: MIC (P. aeruginosa CDC-0090) | MIC [2] | MIC (A. baumannii ATCC 17978) | MIC (A. baumannii 1258916)

O=C(NCCCN1CCN(C(=O)NC(C(=O)N[C@H]2Cc3ccc(F)c(C(=O)O)c3OB2O)c2cc(F)c(O)c(O)c2Cl)C(=O)C1=O)c1ccc(O)c(F)c1F (stereo partly drawn) [Example 306, (3R)-3-(2-(2-chloro-5-fluoro-3,4-dihydroxyphenyl)-2-(4-(3-(2,3-difluoro-4-hydroxybenzamido)propyl)-2,3-dioxopiperazine-1-carboxamido)acetamido)-7-fluoro-2-hydroxy-3,4-dihydro-2H-benzo[e][1,2]oxaborinine-8-carboxylic acid]
< 1 µg/mL: MIC (P. aeruginosa CDC-0090) | MIC [2] | MIC (A. baumannii ATCC 17978) | MIC (A. baumannii 1258916) | MIC (A. baumannii CDC-0045)
< 10 µM: IC50 [1] | IC50 [3] | EC50 [5]
2 to 4 µg/mL: MIC (A. baumannii CDC-0083) | MIC (P. aeruginosa CDC-0054) | MIC [4]

O=C(NCCCN1CCN(C(=O)NC(C(=O)N[C@H]2Cc3ccc(F)c(C(=O)O)c3OB2O)c2cc(F)c(O)c(O)c2Cl)C(=O)C1=O)c1ccc(O)cc1O (stereo partly drawn) [Example 307, (3R)-3-(2-(2-chloro-5-fluoro-3,4-dihydroxyphenyl)-2-(4-(3-(2,4-dihydroxybenzamido)propyl)-2,3-dioxopiperazine-1-carboxamido)acetamido)-7-fluoro-2-hydroxy-3,4-dihydro-2H-benzo[e][1,2]oxaborinine-8-carboxylic acid]
8 to 16 µg/mL: MIC [4]
2 to 4 µg/mL: MIC (P. aeruginosa CDC-0054)
< 10 µM: IC50 [1] | IC50 [3] | EC50 [5]
< 1 µg/mL: MIC (P. aeruginosa CDC-0090) | MIC (A. baumannii CDC-0083) | MIC [2] | MIC (A. baumannii ATCC 17978) | MIC (A. baumannii 1258916) | MIC (A. baumannii CDC-0045)

O=C(O)c1c(F)ccc2c1OB(O)[C@@H](NC(=O)C(NC(=O)N1CCN(C3CCN(C(=O)c4c(F)ccc(O)c4F)CC3)C(=O)C1=O)c1cc(F)c(O)c(O)c1Cl)C2 (stereo partly drawn) [Example 308, (3R)-3-(2-(2-chloro-5-fluoro-3,4-dihydroxyphenyl)-2-(4-(1-(2,6-difluoro-3-hydroxybenzoyl)piperidin-4-yl)-2,3-dioxopiperazine-1-carboxamido)acetamido)-7-fluoro-2-hydroxy-3,4-dihydro-2H-benzo[e][1,2]oxaborinine-8-carboxylic acid]
2 to 4 µg/mL: MIC (P. aeruginosa CDC-0090) | MIC [4]
< 10 µM: IC50 [1] | IC50 [3] | EC50 [5]
< 1 µg/mL: MIC (A. baumannii CDC-0083) | MIC [2] | MIC (A. baumannii ATCC 17978) | MIC (P. aeruginosa CDC-0054) | MIC (A. baumannii 1258916) | MIC (A. baumannii CDC-0045)

O=C(O)c1c(F)ccc2c1OB(O)[C@@H](NC(=O)C(NC(=O)N1CCN(C3CCN(C(=O)c4cc(O)cc(O)c4)CC3)C(=O)C1=O)c1cc(F)c(O)c(O)c1Cl)C2 (stereo partly drawn) [Example 309, (3R)-3-(2-(2-chloro-5-fluoro-3,4-dihydroxyphenyl)-2-(4-(1-(3,5-dihydroxybenzoyl)piperidin-4-yl)-2,3-dioxopiperazine-1-carboxamido)acetamido)-7-fluoro-2-hydroxy-3,4-dihydro-2H-benzo[e][1,2]oxaborinine-8-carboxylic acid]
< 10 µM: IC50 [1] | IC50 [3] | EC50 [5]
< 1 µg/mL: MIC (A. baumannii CDC-0083) | MIC [2] | MIC (A. baumannii ATCC 17978) | MIC (P. aeruginosa CDC-0054) | MIC (A. baumannii 1258916) | MIC [4] | MIC (A. baumannii CDC-0045)
2 to 4 µg/mL: MIC (P. aeruginosa CDC-0090)
